Data as given in the supplement of paper PMC11208160.

Test: recombinant UMI read abundance after kanamycin selection (control-corrected) (log10(CPM+1)); higher = more efficient recombination; extreme values may be limits of the assay; sequences stand for … in AGTGCAGAGAAAATCGGCCAGTTTTCTCTGCCTGCAGTCCGCATGCCGTGGGACCCCTTGGGTTCTAACCTGTTGCCTAGATTTATGCAGCGGACTGCCTTTCTCCCAAAGTGATAAACCGG…AGGTTGGTTTCACT; site = the 11-nt donor
Method in brief: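 Under IPTG (0.07 mM) plus kanamycin, or without selection, Escherichia coli carrying a UMI-tagged donor and donor-binding-loop pair library and a target plasmid for the IS621 bridge recombinase were plated in two replicates. Recombinant UMIs were PCR-amplified across the donor–target junction and sequenced. Counts were converted to CPM, averaged over replicates, scaled by control-derived factors and reported as log10(CPM+1).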
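Also: IS621 bridge recombinase in Escherichia coli cells against a fixed T5 target plasmid.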

Sequence	recombinant UMI read abundance (log10)
CGGGAGTCATGGACCGGTTTTCCCGGTAATCCGTATTTGCC (site CGCGAGTCTGG)	1.69
CGGGAGTCATGGACCGGTTTTCCCGGTAATCCGTATTTGCC (site CGGAAGTCTGG)	2.67
CGGGAGTCATGGACCGGTTTTCCCGGTAATCCGTATTTGCC (site CGGCAGTCTGG)	0
CGGGAGTCATGGACCGGTTTTCCCGGTAATCCGTATTTGCC (site CGGGAATCTGG)	2.83
CGGGAGTCATGGACCGGTTTTCCCGGTAATCCGTATTTGCC (site CGGGACTCTGG)	0
CGGGAGTCATGGACCGGTTTTCCCGGTAATCCGTATTTGCC (site CGGGAGACTGG)	1.54
CGGGAGTCATGGACCGGTTTTCCCGGTAATCCGTATTTGCC (site CGGGAGCCTGG)	0
CGGGAGTCATGGACCGGTTTTCCCGGTAATCCGTATTTGCC (site CGGGAGGCTGG)	0.103
CGGGAGTCATGGACCGGTTTTCCCGGTAATCCGTATTTGCC (site CGGGAGTCTAG)	2.02
CGGGAGTCATGGACCGGTTTTCCCGGTAATCCGTATTTGCC (site CGGGAGTCTCG)	1.51
CGGGAGTCATGGACCGGTTTTCCCGGTAATCCGTATTTGCC (site CGGGAGTCTGA)	2.66
CGGGAGTCATGGACCGGTTTTCCCGGTAATCCGTATTTGCC (site CGGGAGTCTGC)	2.08
CGGGAGTCATGGACCGGTTTTCCCGGTAATCCGTATTTGCC (site CGGGAGTCTGG)	1.67
CGGGAGTCATGGACCGGTTTTCCCGGTAATCCGTATTTGCC (site CGGGAGTCTGT)	1.75
CGGGAGTCATGGACCGGTTTTCCCGGTAATCCGTATTTGCC (site CGGGAGTCTTG)	2.01
CGGGAGTCATGGACCGGTTTTCCCGGTAATCCGTATTTGCC (site CGGGATTCTGG)	0
CGGGAGTCATGGACCGGTTTTCCCGGTAATCCGTATTTGCC (site CGGGCGTCTGG)	0
CGGGAGTCATGGACCGGTTTTCCCGGTAATCCGTATTTGCC (site CGGGGGTCTGG)	1.3
CGGGAGTCATGGACCGGTTTTCCCGGTAATCCGTATTTGCC (site CGGGTGTCTGG)	0
CGGGAGTCATGGACCGGTTTTCCCGGTAATCCGTATTTGCC (site CGGTAGTCTGG)	0.878
CGGGAGTCATGGACCGGTTTTCCCGGTAATCCGTATTTGCC (site CGTGAGTCTGG)	0.895
CGGGAGTCATGGACCGGTTTTCCCGGTAATCCGTATTTGCC (site CTGGAGTCTGG)	2.06
CGGGAGTCATGGACCGGTTTTCCCGGTAATCCGTATTTGCC (site GGGGAGTCTGG)	0

Sequence	recombinant UMI read abundance (log10)
CGGGAGTCATGGACCGGTTTTCCCGGTAATCCGTATTTGCC (site TGGGAGTCTGG)	0
CGGGATCCATGGACCGGTTTTCCCGGTAATCCGTATTTGAT (site CGGGAACCTAT)	0.0108
CGGGATCCATGGACCGGTTTTCCCGGTAATCCGTATTTGAT (site CGGGACCCTAT)	0.492
CGGGATCCATGGACCGGTTTTCCCGGTAATCCGTATTTGAT (site CGGGAGCCTAT)	0.0289
CGGGATCCATGGACCGGTTTTCCCGGTAATCCGTATTTGAT (site CGGGATCCTAT)	0.898
CGGGATCCATGGACCGGTTTTCCCGGTAATCCGTATTTGTT (site CGGAATCCTAA)	0.736
CGGGATCCATGGACCGGTTTTCCCGGTAATCCGTATTTGTT (site CGGCATCCTAA)	0.02
CGGGATCCATGGACCGGTTTTCCCGGTAATCCGTATTTGTT (site CGGGATCCTAA)	0.85
CGGGATCCATGGACCGGTTTTCCCGGTAATCCGTATTTGTT (site CGGTATCCTAA)	0.243
CGGGCACCATGGACCGGTTTTCCCGGTAATCCGTATTTGAT (site CGGGAACCTAT)	0
CGGGCACCATGGACCGGTTTTCCCGGTAATCCGTATTTGAT (site CGGGCACCTAT)	0
CGGGCACCATGGACCGGTTTTCCCGGTAATCCGTATTTGAT (site CGGGGACCTAT)	0.0117
CGGGCACCATGGACCGGTTTTCCCGGTAATCCGTATTTGAT (site CGGGTACCTAT)	0
CGGGCATCATGGACCGGTTTTCCCGGTAATCCGTATTTGCT (site CGATCATCTAG)	0
CGGGCATCATGGACCGGTTTTCCCGGTAATCCGTATTTGCT (site CGGACATCTAG)	0.763
CGGGCATCATGGACCGGTTTTCCCGGTAATCCGTATTTGCT (site CGGCCATCTAG)	0
CGGGCATCATGGACCGGTTTTCCCGGTAATCCGTATTTGCT (site CGGGCATCTAG)	1.86
CGGGCATCATGGACCGGTTTTCCCGGTAATCCGTATTTGCT (site CGGTCATCTAG)	0
CGGGCATCATGGACCGGTTTTCCCGGTAATCCGTATTTGTA (site CGGGCATCTTA)	2.38
CGGGCTGCATGGACCGGTTTTCCCGGTAATCCGTATTTGAG (site CGGGCTGCTCT)	1.37
CGGGGATCATGGACCGGTTTTCCCGGTAATCCGTATTTGTT (site CGGGGATCTAA)	2.63
CGGGTCCCATGGACCGGTTTTCCCGGTAATCCGTATTTGCC (site CGGGTCCCTGG)	1.39
CGGTACCCATGGACCGGTTTTCCCGGTAATCCGTATTTGGT (site CGGTACCCTAC)	0.0101

Sequence	recombinant UMI read abundance (log10)
CGGTAGACATGGACCGGTTTTCCCGGTAATCCGTATTTGAG (site CGATAGACTCT)	2.01
CGGTAGACATGGACCGGTTTTCCCGGTAATCCGTATTTGAG (site CGCTAGACTCT)	0.37
CGGTAGACATGGACCGGTTTTCCCGGTAATCCGTATTTGAG (site CGGTAGACTCT)	1.9
CGGTAGACATGGACCGGTTTTCCCGGTAATCCGTATTTGAG (site CGTTAGACTCT)	0.371
CGGTAGTCATGGACCGGTTTTCCCGGTAATCCGTATTTGTT (site CGGTAGTCTAA)	3.15
CGGTATCCATGGACCGGTTTTCCCGGTAATCCGTATTTGCG (site CGGTATCCTCG)	0.378
CGGTATCCATGGACCGGTTTTCCCGGTAATCCGTATTTGTC (site CGGAATCCTAA)	0.00431
CGGTATCCATGGACCGGTTTTCCCGGTAATCCGTATTTGTC (site CGGTATCCTGA)	0
CGGTCAGCATGGACCGGTTTTCCCGGTAATCCGTATTTGCT (site CGATCATCTAG)	0
CGGTCAGCATGGACCGGTTTTCCCGGTAATCCGTATTTGCT (site CGGTCAGCTAG)	1.12
CGGTCGACATGGACCGGTTTTCCCGGTAATCCGTATTTGGG (site CAGTCGACTCC)	0.0262
CGGTCGACATGGACCGGTTTTCCCGGTAATCCGTATTTGGG (site CCGTCGACTCC)	0.0265
CGGTCGACATGGACCGGTTTTCCCGGTAATCCGTATTTGGG (site CGGTCGACTCC)	0.018
CGGTCGACATGGACCGGTTTTCCCGGTAATCCGTATTTGGG (site CTGTCGACTCC)	0.0407
CGGTCGACATGGACCGGTTTTCCCGGTAATCCGTATTTGTT (site CGATCGACTAA)	0.0167
CGGTCGACATGGACCGGTTTTCCCGGTAATCCGTATTTGTT (site CGCTCGACTAA)	0.00476
CGGTCGACATGGACCGGTTTTCCCGGTAATCCGTATTTGTT (site CGGTCGACTAA)	0.226
CGGTCGACATGGACCGGTTTTCCCGGTAATCCGTATTTGTT (site CGTTCGACTAA)	0.00264
CGGTGGACATGGACCGGTTTTCCCGGTAATCCGTATTTGTC (site CGGTGGACTGA)	2.27
CGGTTCCCATGGACCGGTTTTCCCGGTAATCCGTATTTGTG (site AGGTTCCCTCA)	0.0113
CGGTTCCCATGGACCGGTTTTCCCGGTAATCCGTATTTGTG (site CGGTTCCCTCA)	0.0387
CGGTTCCCATGGACCGGTTTTCCCGGTAATCCGTATTTGTG (site GGGTTCCCTCA)	0.0355
